In publication PMC5988656, “Phase I studies of AZD1208, a proviral integration Moloney virus kinase inhibitor in solid and haematological cancers” (British Journal of Cancer, 2018):

Columns and labels:
[1] = test system: MYC-driven prostate cancer models; design: method as in PMID 25505253; settings: cited from earlier work
[2] = Solid tumour dose-escalation study: pharmacokinetics (plasma, urine); format: in vivo, human
Procedure: The schedules for collection of blood and urine samples for PK analyses in each cohort in both studies are described in Supplementary Table 1. When necessary for clinical response assessment in the AML study, a bone marrow sample for PK analysis was collected at Cycle 1, Day 28.
The concentration of AZD1208 in plasma and urine was determined by Covance, on behalf of Clinical Bioanalysis Alliance at AstraZeneca R&D, using a bioanalytical method. A volume of 0.05 ml of K2EDTA human plasma sample was extracted by liquid–liquid extraction using 0.7 ml of methyl tert-butyl ether. Approximately 100 µl of the supernatant was transferred, evaporated to dryness and reconstituted with 350 µl of 1:1 methanol:water, and a 5 µl injection was made to the high-performance liquid chromatography (HPLC) column. HPLC separations were performed on a Phenomenex LUNA C18 (50 × 2 mm, 5 µm) column using a mobile phase of 0.1% formic acid in water (A) and 0.1% formic acid in acetonitrile (B) at a flow rate of 0.6 ml/min and a column temperature of 40 °C. AZD1208-D5 was used as the internal standard. Detection was performed in a Sciex API4000 mass spectrometer, in a positive electrospray ionisation mode, using multiple reaction monitoring detection (AZD1208: 380.0–>248.1; AZD1208-D5: 385.0–>253.1).

## N[C@@H]1CCCN(c2c(/C=C3\SC(=O)NC3=O)cccc2-c2ccccc2)C1 [AZD1208]
[1]
  Tumour growth: significantly decreased tumour growth
[2]; Cycle 0, Day 1, 1 h post-dose, 120 mg
  Plasma concentration of AZD1208, Gmean: n=3 156.2 ng ml
[2]; Cycle 0, Day 1, 1 h post-dose, 240 mg
  Plasma concentration of AZD1208, Gmean: n=7 668.4 ng ml
[2]; Cycle 0, Day 1, 1 h post-dose, 360 mg
  Plasma concentration of AZD1208, Gmean: n=5 1424 ng ml
[2]; Cycle 0, Day 1, 1 h post-dose, 540 mg
  Plasma concentration of AZD1208, Gmean: n=7 1053 ng ml
[2]; Cycle 0, Day 1, 1 h post-dose, 700 mg
  Plasma concentration of AZD1208, Gmean: n=6 691.7 ng ml
[2]; Cycle 0, Day 1, 1 h post-dose, 800 mg
  Plasma concentration of AZD1208, Gmean: n=6 925.6 ng ml
[2]; Cycle 0, Day 1, 1.5 h post-dose, 120 mg
  Plasma concentration of AZD1208, Gmean: n=3 696.5 ng ml
[2]; Cycle 0, Day 1, 1.5 h post-dose, 240 mg
  Plasma concentration of AZD1208, Gmean: n=7 1317 ng ml
[2]; Cycle 0, Day 1, 1.5 h post-dose, 360 mg
  Plasma concentration of AZD1208, Gmean: n=5 2509 ng ml
[2]; Cycle 0, Day 1, 1.5 h post-dose, 540 mg
  Plasma concentration of AZD1208, Gmean: n=7 2747 ng ml
[2]; Cycle 0, Day 1, 2 h post-dose, 120 mg
  Plasma concentration of AZD1208, Gmean: n=3 1064 ng ml
[2]; Cycle 0, Day 1, 2 h post-dose, 240 mg
  Plasma concentration of AZD1208, Gmean: n=7 1906 ng ml
[2]; Cycle 0, Day 1, 2 h post-dose, 360 mg
  Plasma concentration of AZD1208, Gmean: n=6 3412 ng ml
[2]; Cycle 0, Day 1, 2 h post-dose, 540 mg
  Plasma concentration of AZD1208, Gmean: n=7 4049 ng ml
[2]; Cycle 0, Day 1, 2 h post-dose, 700 mg
  Plasma concentration of AZD1208, Gmean: n=6 3514 ng ml
[2]; Cycle 0, Day 1, 2 h post-dose, 800 mg
  Plasma concentration of AZD1208, Gmean: n=6 2929 ng ml
[2]; Cycle 0, Day 1, 4 h post-dose, 120 mg
  Plasma concentration of AZD1208, Gmean: n=3 720.6 ng ml
[2]; Cycle 0, Day 1, 4 h post-dose, 240 mg
  Plasma concentration of AZD1208, Gmean: n=6 1531 ng ml
[2]; Cycle 0, Day 1, 4 h post-dose, 360 mg
  Plasma concentration of AZD1208, Gmean: n=6 3157 ng ml
[2]; Cycle 0, Day 1, 4 h post-dose, 540 mg
  Plasma concentration of AZD1208, Gmean: n=7 3160 ng ml
[2]; Cycle 0, Day 1, 4 h post-dose, 700 mg
  Plasma concentration of AZD1208, Gmean: n=6 4581 ng ml
[2]; Cycle 0, Day 1, 4 h post-dose, 800 mg
  Plasma concentration of AZD1208, Gmean: n=6 3844 ng ml
[2]; Cycle 0, Day 1, 6 h post-dose, 120 mg
  Plasma concentration of AZD1208, Gmean: n=3 681 ng ml
[2]; Cycle 0, Day 1, 6 h post-dose, 240 mg
  Plasma concentration of AZD1208, Gmean: n=7 1408 ng ml
[2]; Cycle 0, Day 1, 6 h post-dose, 360 mg
  Plasma concentration of AZD1208, Gmean: n=6 2501 ng ml
[2]; Cycle 0, Day 1, 6 h post-dose, 540 mg
  Plasma concentration of AZD1208, Gmean: n=7 3190 ng ml
[2]; Cycle 0, Day 1, 6 h post-dose, 700 mg
  Plasma concentration of AZD1208, Gmean: n=6 5091 ng ml
[2]; Cycle 0, Day 1, 6 h post-dose, 800 mg
  Plasma concentration of AZD1208, Gmean: n=6 2677 ng ml
[2]; Cycle 0, Day 1, 8 h post-dose, 120 mg
  Plasma concentration of AZD1208, Gmean: n=3 597.8 ng ml
[2]; Cycle 0, Day 1, 8 h post-dose, 240 mg
  Plasma concentration of AZD1208, Gmean: n=7 1456 ng ml
[2]; Cycle 0, Day 1, 8 h post-dose, 360 mg
  Plasma concentration of AZD1208, Gmean: n=6 2196 ng ml
[2]; Cycle 0, Day 1, 8 h post-dose, 540 mg
  Plasma concentration of AZD1208, Gmean: n=7 2957 ng ml
[2]; Cycle 0, Day 1, 8 h post-dose, 700 mg
  Plasma concentration of AZD1208, Gmean: n=6 4256 ng ml
[2]; Cycle 0, Day 1, 8 h post-dose, 800 mg
  Plasma concentration of AZD1208, Gmean: n=6 3463 ng ml
[2]; Cycle 0, Day 1, 24 h post-dose, 120 mg
  Plasma concentration of AZD1208, Gmean: n=3 459.4 ng ml
[2]; Cycle 0, Day 1, 24 h post-dose, 240 mg
  Plasma concentration of AZD1208, Gmean: n=7 1157 ng ml
[2]; Cycle 0, Day 1, 24 h post-dose, 360 mg
  Plasma concentration of AZD1208, Gmean: n=6 1649 ng ml
[2]; Cycle 0, Day 1, 24 h post-dose, 540 mg
  Plasma concentration of AZD1208, Gmean: n=7 2111 ng ml
[2]; Cycle 0, Day 1, 24 h post-dose, 700 mg
  Plasma concentration of AZD1208, Gmean: n=6 2957 ng ml
[2]; Cycle 0, Day 1, 24 h post-dose, 800 mg
  Plasma concentration of AZD1208, Gmean: n=6 2466 ng ml
[2]; Cycle 0, Day 1, 48 h post-dose, 120 mg
  Plasma concentration of AZD1208, Gmean: n=3 308.4 ng ml
[2]; Cycle 0, Day 1, 48 h post-dose, 240 mg
  Plasma concentration of AZD1208, Gmean: n=7 773.2 ng ml
[2]; Cycle 0, Day 1, 48 h post-dose, 360 mg
  Plasma concentration of AZD1208, Gmean: n=6 1361 ng ml
[2]; Cycle 0, Day 1, 48 h post-dose, 540 mg
  Plasma concentration of AZD1208, Gmean: n=7 1168 ng ml
[2]; Cycle 0, Day 1, 48 h post-dose, 700 mg
  Plasma concentration of AZD1208, Gmean: n=6 1717 ng ml
[2]; Cycle 0, Day 1, 48 h post-dose, 800 mg
  Plasma concentration of AZD1208, Gmean: n=6 1377 ng ml
[2]; Cycle 0, Day 1, 72 h post-dose, 120 mg
  Plasma concentration of AZD1208, Gmean: n=3 221.4 ng ml
[2]; Cycle 0, Day 1, 72 h post-dose, 240 mg
  Plasma concentration of AZD1208, Gmean: n=7 501.1 ng ml
[2]; Cycle 0, Day 1, 72 h post-dose, 360 mg
  Plasma concentration of AZD1208, Gmean: n=6 912.2 ng ml
[2]; Cycle 0, Day 1, 72 h post-dose, 540 mg
  Plasma concentration of AZD1208, Gmean: n=7 710.8 ng ml
[2]; Cycle 0, Day 1, 72 h post-dose, 700 mg
  Plasma concentration of AZD1208, Gmean: n=6 1141 ng ml
[2]; Cycle 0, Day 1, 72 h post-dose, 800 mg
  Plasma concentration of AZD1208, Gmean: n=6 798.7 ng ml
[2]; Cycle 1, Day 15, 0.25 h post-dose, 120 mg
  Plasma concentration of AZD1208, Gmean: n=3 963.7 ng ml
[2]; Cycle 1, Day 15, 0.25 h post-dose, 240 mg
  Plasma concentration of AZD1208, Gmean: n=6 606.8 ng ml
[2]; Cycle 1, Day 15, 0.25 h post-dose, 360 mg
  Plasma concentration of AZD1208, Gmean: n=2 562.8 ng ml
